The record followed here is patent US20230089867A1, “CYCLIC PENTAMER COMPOUNDS AS PROPROTEIN CONVERTASE SUBTILISIN/KEXIN TYPE 9 (PCSK9) INHIBITORS FOR THE TREATMENT OF METABOLIC DISORDER” (Novartis AG, priority 2018, published 2023).

The assay has as its target human PCSK9 (Homo sapiens, UniProt Q8NBP7). The assay is described as follows: PCSK9 ligand binding TR-FRET assay (interference with binding of human PCSK9 to human LDLR). The following applies: for Max % inhibition: PCSK9 FRET assay, efficacy (Amax), 100% = 1 uM unlabeled human PCSK9, 0% = DMSO; for IC50: TR-FRET, human PCSK9 Alexa Fluor 647 / human LDLR extracellular domain-Europium Kryptate, read-out: PCSK9 FRET Assay IC50. Summed up:
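Threefold compound dilutions were pre-incubated 30 min with PCSK9, after which 4 nM Europium Kryptate-tagged human LDLR ectodomain was added for a further 2 h.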
(In general: In TR-FRET formats the signal depends on donor and acceptor labels being close together.)

Chain of human PCSK9 (Q8NBP7 153-692): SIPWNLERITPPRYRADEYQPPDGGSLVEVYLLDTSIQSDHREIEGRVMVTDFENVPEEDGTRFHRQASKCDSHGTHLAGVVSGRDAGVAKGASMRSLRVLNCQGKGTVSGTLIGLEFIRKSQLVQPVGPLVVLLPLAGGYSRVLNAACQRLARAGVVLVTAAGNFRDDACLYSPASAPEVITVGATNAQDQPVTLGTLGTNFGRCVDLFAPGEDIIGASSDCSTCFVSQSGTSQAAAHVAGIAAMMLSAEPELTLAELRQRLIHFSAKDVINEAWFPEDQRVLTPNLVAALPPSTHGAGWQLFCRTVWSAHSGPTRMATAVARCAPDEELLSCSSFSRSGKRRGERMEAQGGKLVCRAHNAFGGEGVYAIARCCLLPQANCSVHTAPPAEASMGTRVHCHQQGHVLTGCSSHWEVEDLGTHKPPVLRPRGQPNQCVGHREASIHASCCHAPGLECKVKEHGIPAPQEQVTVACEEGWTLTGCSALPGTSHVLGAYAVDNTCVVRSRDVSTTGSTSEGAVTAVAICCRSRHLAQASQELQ
Chain of human PCSK9 (Q8NBP7 31-152 partner limits assumed): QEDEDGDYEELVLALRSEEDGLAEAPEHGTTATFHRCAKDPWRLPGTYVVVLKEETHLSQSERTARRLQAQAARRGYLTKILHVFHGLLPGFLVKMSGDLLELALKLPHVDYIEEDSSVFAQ

As for `COC[C@@H]1NC(=O)[C@H](C)N(Cc2ccc(Cl)cc2Oc2ccc(-c3cnc(CN4CCCC4)n3C)cc2)C(=O)C[C@@H](Cc2ccc(F)cc2F)C(=O)N(C)[C@@H](C)CNC(=O)C[C@H](Cc2ccc(Cl)cc2)N(C)C1=O` [Compound 22, (2S,5S,8S,13S,16R)-1-(4-chloro-2-(4-(1-methyl-2-(pyrrolidin-1-ylmethyl)-1H-imidazol-5-yl)phenoxy)benzyl)-8-(4-chlorobenzyl)-16-(2,4-difluorobenzyl)-5-(methoxymethyl)-2,7,13,14-tetramethyl-1,4,7,11,14-pentaazacyclooctadecane-3,6,10,15,18-pentaone], the Max % inhibition was determined as 98.82% and the IC50 (as a rule, the concentration at which inhibition is half-maximal) was found to be 1.1 nM.
On the same counts, the results for `COC[C@@H]1NC(=O)[C@H](CC(=O)O)N(Cc2ccc(Cl)cc2Oc2ccc(-c3cnc(CN(C)C)n3C)cc2)C(=O)C[C@@H](Cc2ccccc2)C(=O)N(C)[C@@H](C)CNC(=O)C[C@H](Cc2ccc(Cl)cc2)N(C)C1=O` [Compound 82, 2-((2S,5S,8S,13S,16R)-16-benzyl-1-(4-chloro-2-(4-(2-((dimethylamino)methyl)-1-methyl-1H-imidazol-5-yl)phenoxy)benzyl)-8-(4-chlorobenzyl)-5-(methoxymethyl)-7,13,14-trimethyl-3,6,10,15,18-pentaoxo-1,4,7,11,14-pentaazacyclooctadecan-2-yl)acetic acid] are 99.99% and 1.3 nM.
On to `COC[C@@H]1NC(=O)[C@H](CC(=O)OC(C)(C)C)N(Cc2ccc(Cl)cc2Oc2ccc(-c3cnc(CN(C)C)n3C)cc2)C(=O)C[C@@H](Cc2ccccc2)C(=O)N(C)[C@H]2CCCC[C@@H]2NC(=O)C[C@H](Cc2ccc(Cl)cc2)N(C)C1=O` [Compound 237, tert-butyl 2-((4S,7S,10S,14R,16aS,20aS)-14-benzyl-11-(4-chloro-2-(4-(2-((dimethylamino)methyl)-1-methyl-1H-imidazol-5-yl)phenoxy)benzyl)-4-(4-chlorobenzyl)-7-(methoxymethyl)-5,16-dimethyl-2,6,9,12,15-pentaoxodocosahydrobenzo[l][1,4,7,11,14]pentaazacyclooctadecin-10-yl)acetate], for which the Max % inhibition is 102.97% and the IC50 was found to be 1.4 nM.
The like results for `COC[C@@H]1NC(=O)[C@H](C)N(Cc2ccc(OC(F)F)cc2Oc2ccc(-c3cnc(CN(C)C)n3C)cc2)C(=O)C[C@@H](Cc2ccccc2)C(=O)N(C)[C@@H](C)CNC(=O)C[C@H](Cc2ccc(Cl)cc2)N(C)C1=O` [Compound 179, (2S,5S,8S,13S,16R)-16-benzyl-8-(4-chlorobenzyl)-1-(4-(difluoromethoxy)-2-(4-(2-((dimethylamino)methyl)-1-methyl-1H-imidazol-5-yl)phenoxy)benzyl)-5-(methoxymethyl)-2,7,13,14-tetramethyl-1,4,7,11,14-pentaazacyclooctadecane-3,6,10,15,18-pentaone] were, in that order, 103.76% and 0.6 nM.
On the same counts, the results for `COC[C@@H]1NC(=O)[C@H](CCCN2CCCC2)N(Cc2ccc(Cl)cc2Oc2ccc(-c3cnc(CN(C)C)n3C)cc2)C(=O)C[C@@H](Cc2ccccc2)C(=O)N(C)[C@H]2CCCC[C@@H]2NC(=O)C[C@H](Cc2ccc(Cl)cc2)N(C)C1=O` [Compound 251, (4S,7S,10S,14R,16aS,20aS)-14-benzyl-11-(4-chloro-2-(4-(2-((dimethylamino)methyl)-1-methyl-1H-imidazol-5-yl)phenoxy)benzyl)-4-(4-chlorobenzyl)-7-(methoxymethyl)-5,16-dimethyl-10-(3-(pyrrolidin-1-yl)propyl)hexadecahydrobenzo[l][1,4,7,11,14]pentaazacyclooctadecine-2,6,9,12,15(3H)-pentaone] are 99.24% and 0.8 nM.
The like results for `CCn1c(-c2ccc(Oc3cc(Cl)ccc3CN3C(=O)C[C@@H](Cc4ccccc4)C(=O)N(C)[C@@H](C)CNC(=O)C[C@H](Cc4ccc(Cl)cc4)N(C)C(=O)[C@H](COC)NC(=O)[C@@H]3C)cc2)cnc1CN1CCCC1` [Compound 300, (2S,5S,8S,13S,16R)-16-benzyl-1-(4-chloro-2-(4-(1-ethyl-2-(pyrrolidin-1-ylmethyl)-1H-imidazol-5-yl)phenoxy)benzyl)-8-(4-chlorobenzyl)-5-(methoxymethyl)-2,7,13,14-tetramethyl-1,4,7,11,14-pentaazacyclooctadecane-3,6,10,15,18-pentaone] were, in that order, 80.60% and 2.1 nM.
`CC(O)c1ncc(-c2ccc(Oc3cc(Cl)ccc3CN3C(=O)C[C@@H](Cc4ccccc4)C(=O)N(C)[C@@H](C)CNC(=O)C[C@H](Cc4ccc(Cl)cc4)N(C)C(=O)[C@H](CO)NC(=O)[C@@H]3C)cc2)n1C` (stereo partly drawn) [Compound 21, (2S,5S,8S,13S,16R)-16-benzyl-1-(4-chloro-2-(4-(2-(1-hydroxyethyl)-1-methyl-1H-imidazol-5-yl)phenoxy)benzyl)-8-(4-chlorobenzyl)-5-(hydroxymethyl)-2,7,13,14-tetramethyl-1,4,7,11,14-pentaazacyclooctadecane-3,6,10,15,18-pentaone]: the Max % inhibition was 66.09% and the IC50 was 2.4 nM.
The like results for `COC[C@@H]1NC(=O)[C@H](C)N(Cc2ccccc2Oc2ccc(-c3cnc(CN(C)C)n3C)cc2)C(=O)C[C@@H](Cc2ccccc2)C(=O)N(C)[C@@H](C)CNC(=O)C[C@H](Cc2ccc(Cl)cc2)N(C)C1=O` [Compound 9, (2S,5S,8S,13S,16R)-16-benzyl-8-(4-chlorobenzyl)-1-(2-(4-(2-((dimethylamino)methyl)-1-methyl-1H-imidazol-5-yl)phenoxy)benzyl)-5-(methoxymethyl)-2,7,13,14-tetramethyl-1,4,7,11,14-pentaazacyclooctadecane-3,6,10,15,18-pentaone] were, in that order, 98.16% and 3.1 nM.
As for `COC[C@@H]1NC(=O)[C@H](C)N(Cc2ccc(Cl)cc2Oc2ccc(-c3cnc(CN4CCOCC4)n3C)cc2)C(=O)C[C@@H](Cc2ccccc2)C(=O)N(C)[C@@H](C)CNC(=O)C[C@H](Cc2ccc(Cl)cc2)N(C)C1=O` [Compound 205, (2S,5S,8S,13S,16R)-16-benzyl-1-(4-chloro-2-(4-(1-methyl-2-(morpholinomethyl)-1H-imidazol-5-yl)phenoxy)benzyl)-8-(4-chlorobenzyl)-5-(methoxymethyl)-2,7,13,14-tetramethyl-1,4,7,11,14-pentaazacyclooctadecane-3,6,10,15,18-pentaone], the Max % inhibition is reported as 93.20% and the IC50 turned out to be 2 nM.
The like results for `COC[C@@H]1NC(=O)[C@H](C)N(Cc2ccc(Cl)cc2Oc2ccc(-c3cnc4c(c3)CNCC4)cc2)C(=O)C[C@@H](Cc2ccccc2)C(=O)N(C)[C@@H](C)CNC(=O)C[C@H](Cc2ccc(Cl)cc2)N(C)C1=O` [Compound 115, (2S,5S,8S,13S,16R)-16-benzyl-1-(4-chloro-2-(4-(5,6,7,8-tetrahydro-1,6-naphthyridin-3-yl)phenoxy)benzyl)-8-(4-chlorobenzyl)-5-(methoxymethyl)-2,7,13,14-tetramethyl-1,4,7,11,14-pentaazacyclooctadecane-3,6,10,15,18-pentaone] were, in that order, 72.72% and 5.3 nM.
